Results: PubChem BioAssay (NCI)
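GI50 marks 50% less growth. TGI denotes the concentration required for complete inhibition of growth.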

What was measured:
Test in all cases: DTP human tumour cell line panel, 384-well format
[1] = test system: HT29 colon
[2] = test system: OVCAR-4 ovarian
[3] = test system: MOLT-4 leukemia
[4] = test system: HCT-15 colon
[5] = test system: A549 NSCLC
[6] = test system: OVCAR-8 ovarian
[7] = test system: OVCAR-3 ovarian
[8] = test system: SNB-19 CNS
[9] = test system: U251 glioblastoma
[10] = test system: HOP-62 NSCLC
[11] = test system: SN12C renal
[12] = test system: HOP-92 NSCLC
[13] = test system: NCI-H522 lung
[14] = test system: UACC-257 melanoma
[15] = test system: LOX IMVI melanoma
[16] = test system: SK-MEL-2 melanoma
[17] = test system: KM12 colon
[18] = test system: ACHN renal
[19] = test system: MDA-MB-468 breast
[20] = test system: SK-OV-3 ovarian
[21] = test system: RPMI-8226 leukemia
[22] = test system: HCT-116 colon
[23] = test system: MALME-3M melanoma
[24] = test system: UO-31 renal
[25] = test system: T-47D breast
[26] = test system: MDA-MB-435 melanoma
[27] = test system: HCC-2998 colon
[28] = test system: SW-620 colon
[29] = test system: MDA-MB-231 breast

`C#Cc1c(F)ccc2cc(O)cc(-c3ncc4c(N5CC6CCC(C5)N6)nc(OC[C@@]56CCCN5C[C@H](F)C6)nc4c3F)c12` was tested, and the GI50 [1] was 2.02 µM, the TGI [1] was 4.05 µM and the GI50 [2] was 7.07 µM. It also gave a TGI [2] of 19.7 µM, a GI50 [3] of 1.9 µM and a TGI [3] of 3.32 µM. It also gave a GI50 [4] of 14.6 µM, a TGI [4] of 27.8 µM and a GI50 [5] of 5.54 µM. For the same compound, the TGI [5] was 18.5 µM, the GI50 [6] was 12.2 µM and the TGI [6] was 24.7 µM. For the same compound, the GI50 [7] was 4.45 µM, the TGI [7] was 16.6 µM and the GI50 [8] was 10.8 µM. For the same compound, the TGI [8] was 22.8 µM, the GI50 [9] was 1.83 µM and the TGI [9] was 3.36 µM. It also gave a GI50 [10] of 0.853 µM, a TGI [10] of 10.2 µM and a GI50 [11] of 11.5 µM. It also gave a TGI [11] of 23.7 µM, a GI50 [12] of 2.03 µM and a TGI [12] of 4.02 µM. For the same compound, the GI50 [13] was 1.83 µM, the TGI [13] was 3.63 µM and the GI50 [14] was 1.77 µM. For the same compound, the TGI [14] was 3.17 µM, the GI50 [15] was 2.23 µM and the TGI [15] was 3.7 µM. For the same compound, the GI50 [16] was 1.85 µM, the TGI [16] was 3.26 µM and the GI50 [17] was 2.07 µM. For the same compound, the TGI [17] was 5.31 µM, the GI50 [18] was 16.1 µM and the TGI [18] was 29.7 µM. The GI50 [19] was 2.08 µM, the TGI [19] was 3.55 µM and the GI50 [20] was 2.36 µM. It also gave a TGI [20] of 5.59 µM, a GI50 [21] of 0.0774 µM and a TGI [21] of 0.845 µM. It also gave a GI50 [22] of 1.37 µM, a TGI [22] of 2.9 µM and a GI50 [23] of 1.99 µM. The TGI [23] was 3.43 µM, the GI50 [24] was 15.8 µM and the TGI [24] was 29.3 µM. For the same compound, the GI50 [25] was 2.03 µM, the TGI [25] was 5.32 µM and the GI50 [26] was 1.93 µM. It also gave a TGI [26] of 3.4 µM, a GI50 [27] of 0.303 µM and a TGI [27] of 1.67 µM. The GI50 [28] was 0.375 µM, the TGI [28] was 1.61 µM and the GI50 [29] was 1.94 µM.
